For orientation: melting point means the temperature, or range, at which the solid turns liquid.

With `O=C1OC(c2ccccc2)(c2ccccc2)CC(O)=C1CCCc1ccccc1`, the melting point fell in the range of 61 to 63 °C.

For the compound `C=CCSC(=S)c1cc(C(C)(C)C)c(O)c(C(C)(C)C)c1`, the melting point lay in the range of 93 to 95 °C.

Take `FC(F)(F)c1cccc(-c2ncn(CC3CC3)c2-c2ccncc2)c1`: the melting point stood at 106 °C.

With `COc1ccc2c3c1OC1C(=O)C(COS(=O)(=O)c4ccc(C)cc4)(COS(=O)(=O)c4ccc(C)cc4)CC4C(C2)N(C)CCC314` (stereo not given), the melting point lay within 150 to 153 °C.

For the compound `Cc1cc(C)cc(-c2cn(C)cc(-c3cccc(C(F)(F)F)c3)c2=O)c1`, the melting point lay within 160 to 163 °C.

On to `COc1ccc2c(c1)Sc1cc(OC)ccc1N2C`, for which the melting point was in the range of 166 to 167 °C.

Consider `Cc1ccc(COCc2c(C(C)C)cc(C(C)C)c(C(C)O)c2-c2ccc(F)cc2)cc1` (single isomer, unassigned; (+)), for which the melting point fell in the range of 84 to 86 °C.

On to `CC(C)(OCc1cc2cc(C(F)(F)F)ccc2n1S(=O)(=O)c1ccc2c(c1)OCO2)C(=O)O`, for which the melting point was 130 to 132 °C.

In the case of `COC(=O)c1ccc(OC(=O)c2cccc(C(=O)Oc3ccc(C(=O)OC)cc3)c2)cc1`, the melting point lay in the range of 215 to 217 °C.

Take `CC(C)(O)CC1CN=C(c2cc3cc(Oc4ccc(S(C)(=O)=O)cn4)cc(OC4CCOCC4)c3[nH]2)S1` (stereo not given): the melting point fell in the range of 129 to 130 °C.

`CC1CC(=O)c2cc([N+](=O)[O-])c(F)cc2O1` (stereo not given) had a melting point of 139 to 141 °C.

Consider `N#CC1CCC(c2ccc(N)cc2)CC1` (stereo not given), for which the melting point was in the range of 132 to 140 °C.

`CCCC1(c2ccccc2Cl)C(=O)Nc2ccc(OCC)cc21` (stereo not given) displayed a melting point of 136 °C.

In the case of `CCCn1c(=O)c2c(N)n(CC(=O)c3cccc(OC)c3)nc2n(Cc2ccccc2)c1=O`, the melting point was in the range of 184 to 185 °C.

Compound `Cn1c2ccc(F)cc2c(=O)n2nc(C(N)=O)cc12` gave a melting point above 350 °C.

The compound `Cc1cc(SC(C)C)c(NC(=O)CCCSc2nc3c(C)c(Cl)cc(C(C)C)c3o2)c(SC(C)C)n1` displayed a melting point of 141 to 143 °C.

`O=C(Cn1ccnc1)c1ccccc1O` came in with a melting point of 195 to 200 °C.

`COc1cccc(CC(=O)O)c1OCCCc1cn(-c2nnc(C(F)(F)F)s2)nc1C(C)C` gave a melting point of 114 to 115 °C.

In turn, `Cc1cc(N)c(S(N)(=O)=O)cc1-c1ccccn1` yielded a melting point of 229 to 231 °C.

As for `CCOC(=O)COc1c(F)cc(S(=O)CCNS(=O)(=O)c2ccc(Cl)cc2)cc1F` (stereo not given), the melting point was in the range of 137 to 138 °C.

For `CCCCCCOc1ccc(C=[N+]([O-])C(C)(C)C)cc1`, the melting point came to 69 °C.

`COc1ccc(C=CC(=O)O)cc1-c1cc2c(cc1OCCCCCC(=O)O)C(C)(C)CCC2(C)C` came in with a melting point of 166 to 168 °C.

On to `O=C(O)C1CSCCC12OCCO2` (stereo not given), for which the melting point lay in the range of 99 to 101 °C.

Turning to `CCOC(=O)c1cccc(NC(=O)NCC(=O)O)c1`, the melting point was 174 °C.

As to `CCOC(=O)c1c(S)nc2cc(OC)c(OC)cc2c1-c1ccc(OC)c(OC)c1`, the melting point fell in the range of 265 to 266 °C.

The compound `Cc1ccccc1C=C(C#N)C=O` gave a melting point of 81.5 °C.

For the compound `CCC(=CC(CNC(=O)c1cccnc1)=NO)C(C(C)C)[N+](=O)[O-]` (stereo not given), the melting point was in the range of 141 to 142 °C.

The compound `O=C(NC1CCCC1)c1cccc(-c2ccnc3c(C(=O)c4cccs4)cnn23)c1` displayed a melting point of 207 to 209 °C.

On to `O=c1[nH]c2cc(Cl)cc(Cl)c2c(=O)n1-c1ccccc1`, for which the melting point was in the range of 314 to 319 °C.

In turn, `CCC(=O)c1ccc(SC)cn1` displayed a melting point of 52 to 53 °C.

In the case of `c1ccc(-c2ncn(C3CCCCO3)c2-c2ccccc2)cc1` (stereo not given), the melting point is 104 to 105 °C.

Take `CCCCNc1cc(Cl)c2c(c1)C(c1ccccc1F)=NC(C)(C)C(=O)N2C`: the melting point lay within 113 to 115 °C.

As for `CCOC(=O)c1c(Cl)nc2ccsc2c1Cl`, the melting point was 73 °C.

For `Cc1nn(C)c(-c2ccccc2)c1NC1=NCCN1`, the melting point was in the range of 232 to 234 °C.

In the case of `CSc1cccc(-n2cnc(-c3ccc(F)cc3)c2-c2ccncc2)c1`, the melting point lay within 155 to 156 °C.

`CC(Oc1ccc(F)cc1)c1ccnn2cnnc12` (stereo not given) showed a melting point of 103 to 104 °C.

Regarding `NS(=O)(=O)c1cc(Cl)ccc1S`, the melting point was in the range of 142 to 144 °C.

Turning to `CCC(CC)CC(=N)NC(=S)Nc1ccc(Cl)cc1`, the melting point lay within 116 to 118 °C.

`COC(=O)c1cc(OC)c(C#N)c(OC)c1` had a melting point of 151 to 153 °C.

`CCCCCCCCCCCCc1nnn(C(C(=O)O)C(C)C)n1` (stereo not given) displayed a melting point of 39 to 42 °C.

In turn, `CCOC(=O)c1c(-c2ccc(OC)c(OC)c2)c2cc(C)ccc2[nH]c1=O` gave a melting point of 220 to 221 °C.

Compound `CC1=C(c2ccccc2)C(=O)N(C(C)(C)C(=O)C2CCCCC2)CO1` registered a melting point of 94 °C.

In the case of `CCc1c(C(=O)OC)c(C(=O)OC)c2n1-c1ccccc1C2`, the melting point was in the range of 86 to 88 °C.

In turn, `COc1cc(C)c(C(=O)c2ccc(OCc3nc(-c4ccccc4)oc3C)cc2)c(O)c1` had a melting point of 171 to 172 °C.

Regarding `Cc1nc2c(N)nc3c(c2n1CC(C)C)CCCC3`, the melting point lay in the range of 170 to 172 °C.

With `O=C1CCC(c2ccc(NC3=NCCS3)cc2)=NN1`, the melting point was 217 to 218 °C.

As for `NC(=O)[C@@H]1[C@H]2CC[C@H](C2)[C@@H]1Nc1nc(Nc2ccc3c(c2)CCC(NCC(F)(F)F)CC3)ncc1Cl` (stereo not given in full), the melting point was 218 °C.

As to `CCCCC[C@H]1CC[C@H](C(=O)Oc2ccc(OC(F)F)cc2)CC1`, the melting point was 54 °C.

In the case of `Cc1nc(NCCN2CCOCC2)c2nc(-c3ccccc3)cc-2[nH]1`, the melting point was above 280 °C.

The compound `O=C(O)COc1cc(F)c(N2CCOCC2)cc1C(=O)NCc1ccc(Br)cc1F` showed a melting point of 180 °C.

As for `Cc1ccc(NC(=S)NCc2ccc3c(c2)CN(C2CCC(=O)NC2=O)C3=O)cc1Cl` (stereo not given), the melting point lay in the range of 240 to 242 °C.

For the compound `CC(C(=O)O)c1ccc(N)c(C(F)(F)F)c1` (stereo not given), the melting point was 73 to 75 °C.

`Cc1c(C(N)=NO)ncn1-c1cccc(Oc2ccccc2)c1` came in with a melting point of 196 to 198 °C.

Regarding `Cc1c2c(c(-c3ccc(F)cc3)c3c4c(ccc13)OCO4)C(=O)NC2=O`, the melting point lay in the range of 302 to 304 °C.

Compound `CN(C)C[C@@H]1NCCC[C@H]1O` (relative stereo) had a melting point of 50 to 60 °C.

`OC(CN1CCNC1=S)c1ccc(Cl)cc1` (stereo not given): the melting point was determined as 153 °C.

With `C[C@@H](O)C(O)(Cn1ccnc1)c1ccc(F)cc1F` (stereo not given in full), the melting point fell in the range of 73 to 76 °C.

`CCCCCCCc1ccc(C(=O)Cc2ccccc2C(=O)O)cc1` yielded a melting point of 128 to 131 °C.

In turn, `C[Si](C)(C)OCc1cccc2c1c1c(c3ccccc32)-c2c(c3ccccc3c3ccccc23)C1` showed a melting point of 130 to 131 °C.

In turn, `CC12CC(=O)C3C(CCC4CC(O)CCC43C)C1CCC2C(=O)CCN1C(=O)c2ccccc2C1=O` (stereo not given) showed a melting point of 187 to 189 °C.

`CNc1cc(F)ccc1C(=O)CS(=O)(=O)N(C)C` showed a melting point of 120 to 124 °C.

In the case of `COc1ccc2[nH]c3cc(C(=O)OCc4ccccc4)c4c(c3c2c1)C(=O)NC4=O`, the melting point came out at 245 °C.

Take `CSc1ccc(C(=O)Nc2ccc3ccc(Cl)nc3n2)cc1`: the melting point stood at 199 °C.

`CCCCCCCCCCCCCCCCCNC(=O)OCCSCCOC(=O)N(Cc1ccccn1)C(C)=O` came in with a melting point of 62 to 63 °C.

`CCC1C(C)=NN=C(c2ccc(OC)c(O)c2)c2cc(O)c(OC)cc21` (stereo not given) yielded a melting point of 143 to 145 °C.

Compound `NS(=O)(=O)c1ccc(S(=O)(=O)CC(O)CO)cc1` (stereo not given) gave a melting point of 140 to 147 °C.

As for `CCCCCCCCCCNC(=O)c1ccc(N(CC(=O)OC)CC(=O)OC)cc1`, the melting point was 104 to 106 °C.

For the compound `CON(C(=O)c1ccoc1C)C1CCCCC1`, the melting point was 46 °C.

Compound `CC(C)CN(OCc1ccccc1)C(=O)Nc1ccccc1` registered a melting point of 85 to 87 °C.

`CCOCc1nc2c(N)nc3cc(Br)cnc3c2n1CC(C)C` showed a melting point of 163 to 164 °C.

On to `CCOC(=O)C1=C(C)NC2=C(C(=O)CCC2)C1c1nccn1C` (stereo not given), for which the melting point fell in the range of 271 to 272 °C.

`NCCCc1cccnc1C(N)=O` had a melting point of 153 to 156 °C.

Compound `COC(=O)CCC#Cc1cc(Cl)ccc1NS(=O)(=O)c1ccc(C(C)=O)cc1` gave a melting point of 88 °C.

The compound `CN(Cc1cccc(-c2ccc(CC3SC(=O)NC3=O)cc2)c1)C(=O)c1ccno1` (stereo not given) displayed a melting point of 160 °C.

Consider `CCc1c(-c2ccc(O)cc2)c2ccc3ccc(COCCN4CCCC4)c1n32`, for which the melting point is 183 to 187 °C.

The compound `CC1=C(C#CC(C)C=CO)C(C)(C)CCC1=O` (stereo not given) yielded a melting point of 102 to 105 °C.

`CC(=O)N[C@@H](Cc1ccccc1)C[C@H](O)[C@H](Cc1ccccc1)N(Cc1ccccc1)Cc1ccccc1` returned a melting point of 84 to 86 °C.

In the case of `CCOC(=O)C(Cl)=Cc1cc(-n2c(Cl)nc(C(F)(F)F)cc2=O)ccc1Cl`, the melting point fell in the range of 114 to 115 °C.

Regarding `Nc1nc2c(ncn2COCCOC(=O)CCC(=O)O)c(=O)[nH]1`, the melting point lay in the range of 203 to 207 °C.

In turn, `COc1ccccc1C(=O)Nc1ccc(F)cc1` yielded a melting point of 79.6 to 80.2 °C.

With `O=C(c1ccccc1)N1CC2C(C1)C2N(C(=O)c1ccccc1)c1ncc2cc(-c3ccccc3Cl)c(=O)n(C3CC3)c2n1` (stereo not given), the melting point fell in the range of 124 to 130 °C.

The compound `Cc1c(NC(=O)NCC(C)O)c(C)c2c(c1-c1ccccc1)OCC2c1ccc(C(C)C)cc1` (stereo not given) registered a melting point of 171 to 182 °C.

The compound `CCC(CC)(CO)CCCS(=O)(=O)N=CN(C)C` had a melting point of 87 to 88 °C.

In turn, `Cc1cccc(Nc2ncnc3ccc(N)cc23)c1` came in with a melting point of 205 to 206 °C.

The compound `CN1CS(=O)c2ccccc21` (stereo not given) came in with a melting point of 70 to 73.5 °C.

Regarding `O=C(Cl)c1c(Cl)nc2ccc(Br)cc2c1-c1ccccc1`, the melting point lay within 166 to 170 °C.

On to `CC1(C)Cc2c(N)c(Cl)cc(C(=O)NC3CCN(CCCNc4nc(O)c5ccccc5n4)CC3)c2O1`, for which the melting point was found to be 160 °C.

Compound `CN(C)CCC1(c2ccccc2)CCc2ccccc2C1=O` (stereo not given) returned a melting point of 71 to 72 °C.

`CCOC(=O)C(=CC(C)c1ccc(Br)cc1)CC(=O)O` (stereo not given) yielded a melting point of 107 °C.

On to `CCc1c(CO)nc(-c2ccc(OC)c(OC)c2)c2cc(OC)c(OC)cc12`, for which the melting point is 160 to 163 °C.

The values above are taken from a melting point compilation (Tetko et al.; mined from patent text by program, amines drawn as free bases though some values may be those of a salt).
